Measured values from patent publication US6608086B2, “Dihydropyridines and new uses thereof” (Synaptic Pharmaceutical Corporation, priority 1993, dated 2003).
Structures can show the parent of a compound that is named as a salt.

Experiments:
[1] = target: T1, α1A Human Adrenergic Receptor (Homo sapiens, UniProt P25100); assay: Radioligand binding, [3H]prazosin, cloned human α1A adrenergic receptor; conditions: pKi alpha-1 1a
T1 construct: The entire coding region of α1A (1719 bp); expressed in transfected cells
T1 sequence (P25100 1-572): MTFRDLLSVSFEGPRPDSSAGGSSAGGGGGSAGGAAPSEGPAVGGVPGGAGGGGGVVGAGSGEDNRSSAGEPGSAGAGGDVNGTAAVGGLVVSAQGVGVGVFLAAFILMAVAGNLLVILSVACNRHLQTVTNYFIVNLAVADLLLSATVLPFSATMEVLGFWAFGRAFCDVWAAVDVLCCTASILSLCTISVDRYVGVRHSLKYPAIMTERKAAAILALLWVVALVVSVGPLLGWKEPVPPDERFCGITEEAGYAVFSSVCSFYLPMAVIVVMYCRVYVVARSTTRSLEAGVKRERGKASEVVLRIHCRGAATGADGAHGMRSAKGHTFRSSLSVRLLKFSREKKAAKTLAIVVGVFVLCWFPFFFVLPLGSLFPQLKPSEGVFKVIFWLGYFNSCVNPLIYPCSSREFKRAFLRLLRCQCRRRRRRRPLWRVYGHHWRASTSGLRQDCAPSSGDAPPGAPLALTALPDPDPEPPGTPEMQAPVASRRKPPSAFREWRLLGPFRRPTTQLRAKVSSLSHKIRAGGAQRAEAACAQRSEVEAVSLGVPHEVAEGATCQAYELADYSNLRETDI
How it was run: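 Competition binding used membrane preparations of transfected LM(tk−) cells and the α1 antagonist [3H]prazosin at 0.5 nM, incubated 20 min at 37° C in Tris-HCl buffer, pH 7.5.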

[2] = system: human prostatic tissue; assay: In vitro human prostate model: block of phenylephrine-induced contraction of human prostatic tissue; type: cell-based; conditions: block of phenylephrine-induced contraction of human prostate
Excerpt: The protocol for these experiments is given below.
Functional Properties of α1 Antagonists in the Human Prostate
The efficacy of α1 adrenergic antagonists for the treatment of benign prostatic hyperplasia (BPH) is related to their ability to elicit relaxation of prostate smooth muscle. An index of this efficacy can be obtained by determining the potency of al antagonists to antagonize the contraction of human prostatic tissue induced by an α1 agonist “in vitro”. Furthermore, by comparing the potency of subtype selective α1 antagonists in binding assays using human α1 receptors with their potency to inhibit agonist-induced smooth muscle contraction, it is possible to determine which of the α1 adrenergic receptor subtypes is involved in the contraction of prostate smooth muscle.
Prostatic adenomas were obtained at the time of surgery from patients with symptomatic BPH. […] The baths were maintained at 37° C. and continuously oxygenated with 5% CO2 and 95% O2. Isometric tension was measured with a Grass Instrument FT03 force transducer interfaced with a computer. Tissue strips were contracted with varying concentrations of phenylephrine after incubating for 20 minutes in the absence and presence of at least three different concentrations of antagonist. Dose-response curves for phenylephrine were constructed, and the antagonist potency (pA2) was estimated by the dose-ratio method. The concentration of some antagonists in the tissue bath was assessed by measuring the displacement of [3H]prazosin by aliquots of the bath medium, using membrane preparations of the cloned human α1C receptor. This control was necessary to account for losses of antagonist due to adsorption to the tissue bath and/or metabolism during the time the antagonists were equilibrated with the prostate tissue.

[3] = system: canine prostate; assay: In vivo dog prostate model: inhibition of phenylephrine-induced increase in urethral pressure in anesthetized dogs; conditions: inhibition of phenylephrine-induced increases in urethral pressure, anesthetized dogs
Procedure: Protocol for In Vivo Evaluation of Compounds in Canine Prostate
Adult male mongrel dogs more than one year of age were chosen for the model. After induction of general anesthesia using sodium pentobarbital (25 mg/Kg i.v.), the animals were intubated and allowed to breathe spontaneously. An arterial catheter was inserted via the femoral artery to monitor blood pressure and i.v. line was inserted into the leg for fluid and drug administration. A constant saline infusion was maintained at 40 to 50 mL/h. Next, a seven cm lower abdominal incision was made one cm lateral to the penis.
The bladder, prostate and a short segment of urethra were identified and isolated, without damage to the nerves or blood vessels. A cystotomy incision was made through which the pressure catheter was inserted and positioned in the prostatic urethra. The cystotomy was not closed, but the wound edges were sutured to stop bleeding. The tip of the catheter was positioned just distal to the prostate and secured in place with an O-silk tie around the urethra. A second holding suture at the bladder neck secured the catheter in place.
Fluid, either water or saline, was pumped by a Harvard infusion pump at 0.1 mL/min through a Gould pressure transducer into the catheter. The fluid exists at a port in the catheter which is in the prostatic urethra. Occlusion of the port, by contraction of the prostate, blocks the flow and a pressure wave is created. This pressure is transmitted back through the catheter to the transducer which is attached to a Gould recorder. Squeezing the prostate gland caused an increase in urethral pressure which verified the correct position in the urethra.
The compounds were tested as follows: A dose response curve was first generated for phenylephrine alone, in doses ranging from one μg/Kg to 50 μg/Kg. The absolute rise in urethral pressure was recorded for each dose and the next dose given when the urethral pressure returned to baseline. Phenylephrine dose response curves were generated in all animals tested. Increasing doses of compounds were then given, and the phenylephrine dose response curve repeated in the prepense of each dose of the compound. No animal received more than one compound; four animals were used to test each compound. To test for tachyphylaxis, four separate dogs were challenged with repeated phenylephrine doses for six hrs, the usual length of each experiment. From the dose-effect data, the inhibition constant (Ki) and the median-effect dose (ED50) were calculated. Both the Ki and ED50 values given are calculated by using microcomputer software and an IBM-PC.

[4] = [3H]prazosin, cloned human α1A receptor, LM(tk−) cell membranes
[5] = [3H]prazosin, cloned human receptor in LM(tk-) cell membranes, SEM and n in lines below

| Compound | Ki [1, 4] | pA2 [2] | Ki [1, 5] | Urethral Pressure K i [3] | melting point | Ki [1] |
| --- | --- | --- | --- | --- | --- | --- |
| CCC1=C(C(N)=O)C(c2ccc([N+](=O)[O-])cc2)C(C(=O)NCCCN2CCC(C#N)(c3ccccc3)CC2)=C(CC)N1 (single isomer, unassigned; (+)) [(+)-102] | 2880 nM | 10.43 ± 0.14 |  |  |  |  |
| CCC1=C(C(N)=O)C(c2ccc([N+](=O)[O-])cc2)C(C(=O)NCCCN2CCC(c3ccccc3)(c3ccccc3)CC2)=C(CC)N1 (stereo not shown) [Example 42, 5-carboxamido-2,6-diethyl-1,4-dihydro-4-(4-nitrophenyl)-3-{N-[3-(4,4-diphenylpiperidin-1-yl)propyl]}carboxamidopyridine] |  | 8.92 ± 0.08 | 447 nM | 9 ± 2.5 nmol/kg | 119 to 123 °C |  |
| CCC1=C(C(=O)NCCCN2CCC(c3ccccc3)(c3ccccc3)CC2)C(c2ccc([N+](=O)[O-])cc2)C(C(=O)OC)=C(C)N1 (stereo not shown) [Example 73, 2-Ethyl-1,4-dihydro-5-methoxycarbonyl-6-methyl-4-(4-nitro) phenyl-3-(N-(3-(4,4-diphenylpiperidin-1-yl)propyl))carboxamidopyridine] |  | 8.56 ± 0.07 |  |  |  | 204 nM |
| CCC1=C(C(=O)NCCCN2CCC(c3ccccc3)(c3ccccc3)CC2)C(c2ccc([N+](=O)[O-])cc2)C(C(N)=O)=C(C)N1 (stereo not shown) [Example 81, 5-carboxamido-2-ethyl-1,4-dihydro-6-methyl-4-(4-nitro)phenyl-3-(N-(3-(4,4-diphenylpiperidin-1-yl)propyl))carboxamidopyridine hydrochloride] |  | 8.60 ± 0.03 | 407 nM |  |  |  |
| CCC1=C(C(=O)NCCCN2CCC(c3ccccc3)(c3ccccc3)CC2)C(c2cccc(OC)c2)C(C(=O)NCCCN2CCC(c3ccccc3)(c3ccccc3)CC2)=C(CC)N1 [Example 112, 2,6-Diethyl-1,4-dihydro-4-(3-methoxyphenyl)-3,5-bis(N-(3-(4,4-diphenylpiperidin-1-yl)propyl)carboxamido)-pyridine] | 30.2 nM |  |  |  | 166 to 170 °C |  |
| CCC1=C(C(=O)NCCCN2CCC(c3ccccc3)(c3ccccc3)CC2)C(c2cccc(OC)c2)C(C(N)=O)=C(C)N1 (stereo not shown) [Example 113, 5-Carboxamide-2-ethyl-1,4-dihydro-4-(3-methoxyphenyl)-6-methyl-3-(N-(3-(4,4-diphenylpiperidin-1-yl)propyl)carboxamido)-pyridine] | 692 nM |  |  |  | 120 to 123 °C |  |
| CC1=C(C(N)=O)C(c2ccc(S(C)(=O)=O)cc2)C(C(=O)NCCCN2CCC(c3ccccc3)(c3ccccc3)CC2)=C(C)N1 (stereo not shown) [Example 115, 5-Carboxamido-1,4-4-dihydro-4-(4-methanesufonylphenyl)-2,6-dimethyl-3-(N-(3-(4,4-diphenylpiperidin-1-yl)propyl)carboxamido)-pyridine] | 2000 nM |  |  |  | 206 to 209 °C |  |
| COc1cccc(C2C(C(N)=O)=C(C)NC(C)=C2C(=O)NCCCN2CCC(c3ccccc3)(c3ccccc3)CC2)c1 (stereo not shown) [Example 117, 5-Carboxamido-1,4-dihydro-4-(3-Methoxyphenyl)-2,6-dimethyl-3-(N-(3-(4,4-diphenylpiperidin-1-yl)propyl)carboxamido)-pyridine] | 2090 nM |  |  |  | 212 to 213 °C |  |
| CCC1=C(C(N)=O)C(c2ccc(S(C)(=O)=O)cc2)C(C(=O)NCCCN2CCC(c3ccccc3)(c3ccccc3)CC2)=C(C)N1 (stereo not shown) [Example 118, 3-Carboxamido-2-ethyl-1,4-dihydro-4-(4-methanesulfonylphenyl)-6-methyl-3-(N-(3-(4,4-diphenylpiperidin-1-yl)propyl)carboxyamido)-pyridine] | 2190 nM |  |  |  | 182 to 183 °C |  |
| CC(C)C1=C(C(N)=O)C(c2ccc([N+](=O)[O-])cc2)C(C(=O)NCCCN2CCC(c3ccccc3)(c3ccccc3)CC2)=C(C(C)C)N1 (stereo not shown) [Example 127] | 355 nM |  |  |  | 76 to 80 °C |  |
| CCC1=C(C(=O)NC)C(c2ccc([N+](=O)[O-])cc2)C(C(=O)NCCCN2CCC(c3ccccc3)(c3ccccc3)CC2)=C(CC)N1 (stereo not shown) [Example 128, 2,6-Diethyl-1,4-dihydro-5-(N-methyl)carboxamido-4-(4-nitrophenyl)-3-{N-[3-(4,4-diphenylpiperidin-1-yl)propyl]}carboxamidopyridine] | 977 nM | 8.21 ± 0.06 |  |  | 123 to 126 °C |  |
| CCC1=C(C(=O)NCCCN2CCC(c3ccccc3)(c3ccccc3)CC2)C(c2ccc([N+](=O)[O-])cc2)C(C(=O)OC(C)(C)C)=C(COCCN=[N+]=[N-])N1 (stereo not shown) [Example 139] | 479 nM |  |  |  | 62 to 67 °C |  |
| CCC1=C(C(=O)OCCC#N)C(c2ccc([N+](=O)[O-])cc2)C(C(=O)NCCCN2CCC(c3ccccc3)(c3ccccc3)CC2)=C(COCCN=[N+]=[N-])N1 (stereo not shown) [Example 141] | 50.1 nM |  |  |  | 63 to 67 °C |  |
| CCNC(=O)C1=C(COCCN=[N+]=[N-])NC(CC)=C(C(=O)NCCCN2CCC(c3ccccc3)(c3ccccc3)CC2)C1c1ccc([N+](=O)[O-])cc1 (stereo not shown) [Example 147, 2-((2-Azidoethyl)oxy)methyl-6-ethyl-3-(N-ethyl)carboxamido-1,4-dihydro-4-(4-nitro)phenyl-5-(N-(3-(4,4-diphenylpiperidin-1-yl-)propyl))carboxamidopyridine] | 372 nM |  |  |  | 83 to 87 °C |  |
| CCC1=C(C(=O)NCCCN2CCC(c3ccccc3)(c3ccccc3)CC2)C(c2ccc([N+](=O)[O-])cc2)C(C(N)=O)=C(COCCN=[N+]=[N-])N1 (stereo not shown) [Example 149, 2-((2-Azidoethyl)oxy)methyl-3-carboxamido-6-ethyl-1,4-dihydro-4-(4-nitro) phenyl-5-(N-(3-(4,4-diphenylpiperidin-1-yl)propyl))carboxamidopyridine] | 324 nM |  |  |  | 87 to 91 °C |  |
| CC1=C(C(=O)NCCCN2CCC(c3ccccc3)(c3ccccc3)CC2)C(c2ccc([N+](=O)[O-])cc2)C(C(=O)NC(C)C)=C(C)N1 (stereo not shown) [Example 156, 1,4-Dihydro-3-(N-isopropyl) carboxamido-2,6-dimethyl-4-(4-nitrophenyl)-5-{N-[3-(^414-diphenylpiperidin-1-yl)propyl]}carboxamidopyridine] | 1320 nM |  |  |  | 123 to 125 °C |  |
| CNC(=O)C1=C(C)NC(C)=C(C(=O)NCCCN2CCC(O)(c3ccccc3)CC2)C1c1ccc([N+](=O)[O-])cc1 (stereo not shown) [Example 162, 1,4-Dihydro-3-{N-[3-(4-hydroxy-4-phenylpiperidin-1-yl)propyl]}carboxamido-2,6-dimethyl-5-(N-methyl)carboxamido-4-(4-nitrophenyl)pyridine] | 1070 nM |  |  |  | 87 to 91 °C |  |
